Data reported in patent US20260092054A1, “FUSED RING COMPOUND AND PHARMACEUTICAL CONTAINING SAME” (KAKEN PHARMACEUTICAL CO., LTD., priority 2022, published 2026).

What was measured:
human STAT6 = experiment: Human STAT6 dependent reporter activity (IL-4 stimulated STAT6 reporter assay using STAT6-HEK293 cells); assay type: cell-based; details: Homo sapiens, IL-4 stimulation, luciferase activity, read-out: Inhibition rate (%); for inhibition at 0.1 µM: compound 0.1 μmol/L; for inhibition at 1 µM: compound 1 μmol/L
Procedure: Test Example 2: Measurement of Human STAT6 Dependent Reporter Activity
1) Construction of Human STAT6-HEK293 Cells
HEK 293 cells maintenance cultured by [Penicillin-Streptomycin (Thermo Fisher Scientific) and FBS, 1 vol % and 10 vol % respectively added to DMEM high glucose (Thermo Fisher Scientific)](manufactured by ATCC) were collected, and suspended in 10 mL of 0.5% BSA/PBS. 1×10^6 cells were collected, the supernatant was removed by centrifuging, and the cells were suspended in 100 μL of Nucleofector solution V (manufactured by Lonza K.K.). 2 μg of STAT6 vector [plasmid DNAs incorporating human STAT6 sequences in pcDNA3.1 (Invitrogen)] was added, and the STAT6 vector was introduced into the HEK293 cells using the program Q-001 initially registered in the Nucleofector®2b. A cell line (STAT6-HEK293 cells) consistently expressing STAT6 was acquired by selecting resistant cells in a medium containing Geneticin® (manufactured by Thermo Fisher Scientific). 2) STAT6 reporter assay using STAT6-HEK293 cells 3×10^6 STAT6-HEK293 cells maintained in assay medium [culture medium supplemented with 1 vol % Geneticin®] were harvested and seeded in a 10 cm dish. 3 μg of a STAT6 reporter vector [plasmid in which a sequence containing a STAT6 binding sequence and a C/EBP binding sequence in tandem was incorporated into pGL4.27 (manufactured by Promega Corporation)] and 9 μL of FuGENE® HD transfection reagent (manufactured by Promega Corporation) were added to 500 μL of Opti-MEM® (manufactured by Thermo Fisher Scientific) to prepare transfection solutions. The transfection solution was vortexed and left to stand for about 5 minutes, then added dropwise to the STAT6-HEK293 cells, which were then cultured overnight in a C02 incubator to produce STAT6 reporter cells.
The prepared STAT6 reporter cells were seeded on B&W isoplate-96 TC (PerkinElmer Japan Co., Ltd.) (3×10^4 cells/50 μL/well) and cultured overnight in a C02 incubator (37° C., 5% C02). 50 μL of assay medium was added to each well instead of the STAT6 reporter cells. The compound addition solution was prepared by diluting the DMSO solution of the example compound 250-fold using the assay medium. 20 μL of compound addition solution or 0.4 vol % DMSO-containing assay medium was added to the plate, and the plate was then cultured in a CO2 incubator for 1 hour. 10 μL of 80 ng/mL human IL-4 solution (Peprotech) or assay medium was added to each well, and the cells were cultured in a CO2 incubator for 6 hours.
STAT6 reporter activity was measured using the Bright-Glo® Luciferase Assay System (Promega). 100 μL of Bright-Glo® reagent was added to each well, and luciferase activity was measured using Infinite® F500. The inhibition rate of each Example compound was calculated by the following formula using the luciferase activity value (G) when no Example compound was added and stimulation with IL-4 was performed, the luciferase activity value (H) when no Example compound was added and stimulation with IL-4 was not performed, and the luciferase activity value (I) when each Example compound was treated and stimulation with IL-4 was performed.
Note that the viable cell rate under each condition was 70% or more, and it was determined that the luciferase activity inhibitory activity of each example compound was appropriately evaluated.

human STAT6/pIL-4Rα = molecular target: T1, human STAT6/pIL-4Rα (Homo sapiens, UniProt P42226); experiment: Binding inhibitory activity between human STAT6/pIL-4Rα by fluorescence polarization method; details: rhSTAT6 (123-658) / FAM-pIL-4Rα peptide
T1 construct: histidine tag
T1 sequence (P42226 123-658): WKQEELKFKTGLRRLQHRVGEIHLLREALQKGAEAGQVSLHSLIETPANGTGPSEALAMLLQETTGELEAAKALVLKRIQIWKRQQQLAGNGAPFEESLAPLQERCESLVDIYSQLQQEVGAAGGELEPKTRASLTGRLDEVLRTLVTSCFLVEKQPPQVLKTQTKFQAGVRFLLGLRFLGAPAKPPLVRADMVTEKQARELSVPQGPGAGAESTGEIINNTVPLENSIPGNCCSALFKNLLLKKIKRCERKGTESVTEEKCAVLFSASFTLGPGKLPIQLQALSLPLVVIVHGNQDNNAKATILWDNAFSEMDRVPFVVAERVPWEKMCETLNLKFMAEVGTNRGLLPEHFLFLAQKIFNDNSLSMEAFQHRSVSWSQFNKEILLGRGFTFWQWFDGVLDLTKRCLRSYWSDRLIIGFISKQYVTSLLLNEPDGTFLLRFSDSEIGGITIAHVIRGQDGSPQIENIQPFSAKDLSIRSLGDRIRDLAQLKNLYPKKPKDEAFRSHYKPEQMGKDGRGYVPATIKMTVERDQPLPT
Procedure: Test Example 1: Measurement of Binding Inhibitory Activity Between Human STAT6/pIL-p 4Rα by Fluorescence Polarization Method
1) Construction of Histidine Tag-Fused Recombinant Human STAT6 (123 to 658 Region)
A histidine tag-fused recombinant human STAT6 (hereinafter referred to as rhSTAT6) expression vector [plasmid DNA in which a nucleic acid sequence containing human STAT6 (123-658 region) was inserted into a pET28a(+) vector (Novagen)] was inserted into E. coli, and the cells were cultured overnight under culturing conditions at 17° C. with IPTG treatment. After disrupting E. coli with a high-pressure homogenizer (EmulsiFlex-C3, manufactured by AVESTIN, Inc.), affinity purification using Ni-NTA agarose (manufactured by Qiagen), cation exchange chromatography using HiTrap® CM-FF (manufactured by GE healthcare), and gel filtration chromatography using Superdex® 200 10/300GL (manufactured by GE healthcare) were performed to obtain rhSTAT6.
2) Measurement of Binding Inhibitory Activity Between Human STAT6/pIL-4Rα by Fluorescence Polarization Method
A DMSO solution of the example compound was diluted with an assay buffer [for example, a buffer containing 50 mmol/L NaCl, 10 mmol/L HEPES (pH 7.0), 1 mmol/L DTT, 1 mmol/L EDTA, and 0.01 vol % NP-40, and the like] to prepare a compound-added solution. The DMSO concentration in the compound addition solution was adjusted to 1 or 2 vol %. 10 μL of the compound addition solution and an assay buffer containing 1 or 2 vol % DMSO were added to each well of a 384-well plate. 5 μL of an assay buffer solution containing rhSTAT6 (rhSTAT6 concentration: for example, 1 μmol/L) or an assay buffer was added to each well of a 384-well plate. After leaving the plate at room temperature for 30 minutes in the dark, 5 μL of an assay buffer solution (FAM-pIL-4Rp concentration: for example, 80 nmol/L) containing FAM-labeled phosphorylated IL-4Rα peptide (sequence: FAM-Ala-pTyr-Lys-Pro-Phe-Gln-Asp-Leu-IIe-NH2) (hereinafter, FAM-pIL-4Rp) or an assay buffer containing 2 vol % DMSO was added to each well of the 384-well plate. The mixture was left to stand at room temperature for 30 minutes in the dark, and then centrifuged (200 g, 1 minute, room temperature). Fluorescence polarization values were measured using Infinite (registered trademark) F500 (manufactured by Tecan Japan Co., Ltd.) (Excitation: 485 nm, Emission: 535 nm). The inhibition rate of each Example compound was calculated according to the following formula using the fluorescence polarization value (A) when rhSTAT6 and FAM-pIL-4Rp were added without adding the Example compound, the fluorescence polarization value (B) when FAM-pIL-4Rp was added without adding the Example compound and rhSTAT6, and the fluorescence polarization value (C) when each Example compound, rhSTAT6, and FAM-pIL-4Rp were added.
In the evaluation of each example compound, the 50% inhibitory concentration (IC50) of each example compound was calculated from a linear function equation of a straight line connecting two points sandwiching 50%.

IC50 (human STAT6/pIL-4Rα) [nM] | Structure (SMILES) | inhibition at 0.1 µM (human STAT6) [%] | inhibition at 1 µM (human STAT6) [%]
440 | CCn1c(-c2ccc(N3C(=O)C(C)CC3C)cc2)nc2cc(C(F)(F)F)cc(C(=O)Nc3cccc(C(N)=O)c3)c21 (racemic) [Ex. 11] | 43 | 92
350 | CCn1c(-c2ccc(N3C(=O)C(C)CC3C)cc2)nc2cc(C(F)(F)F)cc(C(=O)Nc3cccc(C(N)=O)c3)c21 (single isomer, unassigned) [Ex. 12] | 47 | 94
280 | CCn1c(-c2ccc(N3C(=O)C(C)CC3C)cc2)nc2cc(C(F)(F)F)cc(C(=O)Nc3cccc(C(N)=O)c3F)c21 (single isomer, unassigned) [Ex. 219] | 32 | 96
360 | CC1CC(C)N(c2ccc(-c3cc4ccnc(C(=O)Nc5ccc(F)c(C(N)=O)c5)c4n3CC3(C#N)CC3)cc2)C1=O (single isomer, unassigned) [Ex. 221] | 60 | 94
320 | CC1CC(C)N(c2ccc(-c3cc4ccnc(C(=O)Nc5cccc(C(N)=O)c5F)c4n3CC3(C#N)CC3)cc2)C1=O (single isomer, unassigned) [Ex. 223] | 67 | –
390 | CCn1c(-c2ccc(-n3cnn(C)c3=O)cc2)nc2cc(C(F)(F)F)cc(C(=O)Nc3cccc(C(N)=O)c3F)c21 [Ex. 1] | 22 | 93
490 | CCn1c(-c2ccc3c(c2)CCN3C(C)=O)nc2cc(C(F)(F)F)cc(C(=O)Nc3cccc(C(N)=O)c3F)c21 [Ex. 2] | 14 | 72
320 | COCCn1c(-c2ccc(-n3c(C)nn(C)c3=O)cc2)cc2cc(C(F)(F)F)cc(C(=O)Nc3cccc(C(=O)Nc4ccn(C)n4)c3)c21 [Ex. 117] | – | –
570 | CCn1c(-c2ccc(-n3c(C)nn(C)c3=O)nn2)cc2cc(C(F)(F)F)cc(C(=O)Nc3ccc(F)c(C(N)=O)c3)c21 [Ex. 128] | – | –
910 | CCn1c(-c2ccc(-n3cnn(C)c3=O)cc2)c(Cl)c2cc(C(F)(F)F)cc(C(=O)Nc3cccc(C(N)=O)c3)c21 [Ex. 141] | – | –
300 | COCCn1c(-c2ccc(-n3c(C)nn(C)c3=O)cc2)cc2cc(C(F)(F)F)cc(C(=O)Nc3cccc(C(=O)O)c3)c21 [Ex. 162] | – | –
320 | CCn1c(-c2ccc(-n3c(C)nn(C)c3=O)cc2)cc2ccnc(C(=O)Nc3cccc(C(=O)O)c3)c21 [Ex. 164] | – | –
270 | COCCn1c(-c2ccc(-n3c(C)nn(C)c3=O)cc2)cc2cc(C(F)(F)F)cc(C(=O)Nc3cccc(C(=O)O)n3)c21 [Ex. 184] | – | –
7060 | C/C=C/c1cc(C(=O)Nc2cccc(C(N)=O)c2)c2c(c1)nc(-c1ccc(N(C)C(C)=O)cc1)n2CCOC [Ex. 203] | – | –
2350 | CCCc1cc(C(=O)Nc2cccc(C(N)=O)c2)c2c(c1)nc(-c1ccc(N(C)C(C)=O)cc1)n2CCOC [Ex. 204] | – | –
8440 | COCCn1c(-c2ccc(N(C)C(C)=O)cc2)nc2cc(CCC(C)(C)OC)cc(C(=O)Nc3cccc(C(N)=O)c3)c21 [Ex. 205] | – | –
3620 | C#Cc1cc(C(=O)Nc2cccc(C(N)=O)c2)c2c(c1)nc(-c1ccc(N(C)C(C)=O)cc1)n2CCOC [Ex. 206] | – | –
2950 | C=Cc1cc(C(=O)Nc2cccc(C(N)=O)c2)c2c(c1)nc(-c1ccc(N(C)C(C)=O)cc1)n2CCOC [Ex. 207] | – | –
2080 | COCCn1c(-c2ccc(N(C)C(C)=O)cc2)nc2cc(C3CC3)cc(C(=O)Nc3cccc(C(N)=O)c3)c21 [Ex. 208] | – | –
6600 | COCCn1c(-c2ccc(N(C)C(C)=O)cc2)nc2cc(-c3ccccc3)cc(C(=O)Nc3cccc(C(N)=O)c3)c21 [Ex. 209] | – | –
2740 | COCCn1c(-c2ccc(N(C)C(C)=O)cc2)nc2cc(C(C)C)cc(C(=O)Nc3cccc(C(N)=O)c3)c21 [Ex. 210] | – | –
4980 | COCCn1c(-c2ccc(N(C)C(C)=O)cc2)nc2cc(CC(C)C)cc(C(=O)Nc3cccc(C(N)=O)c3)c21 [Ex. 211] | – | –
9030 | COCCn1c(-c2ccc(N(C)C(C)=O)cc2)nc2cc(C3CCCC3)cc(C(=O)Nc3cccc(C(N)=O)c3)c21 [Ex. 212] | – | –
3470 | COCCn1c(-c2ccc(N(C)C(C)=O)cc2)nc2cc(CO)cc(C(=O)Nc3cccc(C(N)=O)c3)c21 [Ex. 213] | – | –
3980 | COCCn1c(-c2ccc(N(C)C(C)=O)cc2)nc2cc(CC#N)cc(C(=O)Nc3cccc(C(N)=O)c3)c21 [Ex. 214] | – | –
2940 | COCCn1c(-c2ccc(N(C)C(C)=O)cc2)nc2cc(COC)cc(C(=O)Nc3cccc(C(N)=O)c3)c21 [Ex. 215] | – | –
590 | COCCn1c(-c2ccc(-n3c(C)nn(C)c3=O)cc2)cc2cc(C(F)(F)F)cc(C(=O)Nc3cccc(NS(C)(=O)=O)n3)c21 [Ex. 217] | – | –
270 | C/C(=C\C(=O)N[C@H](C(=O)N1CCC[C@H]1C(=O)N(C)c1ccccc1)C(C)(C)C)c1ccc(OP(=O)(O)O)cc1 [PM-301H, reference compound] | – | –
